The supplement of paper PMC13380429

Key:
Settings in all cases: 72 h
HepG2 [1] = assay: cell viability relative to DMSO; higher = less toxic
Vero E6 [2] = assay: as above
Caco-2 [3] = assay: as above
Calu-3 [4] = assay: as above
U2OS [5] = assay: as above
HepG2 [6] = assay: relative viability EC50 (midpoint between 100% and the lowest measured viability); higher = less toxic
Vero E6 [7] = assay: as above
Caco-2 [8] = assay: as above
Calu-3 [9] = assay: as above
U2OS [10] = assay: as above
HepG2 [11] = assay: drug sensitivity score (DSS) for viability; higher = more toxic; extreme values may be limits of the assay
Vero E6 [12] = assay: as above
Caco-2 [13] = assay: as above
Calu-3 [14] = assay: as above
U2OS [15] = assay: as above

Row | SMILES | cell viability (HepG2 [1]; 1 nM) [%] | cell viability (HepG2 [1]; 10 nM) [%] | cell viability (HepG2 [1]; 100 nM) [%] | cell viability (HepG2 [1]; 1000 nM) [%] | cell viability (HepG2 [1]; 10000 nM) [%] | cell viability (Vero E6 [2]; 1 nM) [%] | cell viability (Vero E6 [2]; 10 nM) [%] | cell viability (Vero E6 [2]; 100 nM) [%] | cell viability (Vero E6 [2]; 1000 nM) [%] | cell viability (Vero E6 [2]; 10000 nM) [%] | cell viability (Caco-2 [3]; 1 nM) [%] | cell viability (Caco-2 [3]; 10 nM) [%] | cell viability (Caco-2 [3]; 100 nM) [%] | cell viability (Caco-2 [3]; 1000 nM) [%] | cell viability (Caco-2 [3]; 10000 nM) [%] | cell viability (Calu-3 [4]; 1 nM) [%] | cell viability (Calu-3 [4]; 10 nM) [%] | cell viability (Calu-3 [4]; 100 nM) [%] | cell viability (Calu-3 [4]; 1000 nM) [%] | cell viability (Calu-3 [4]; 10000 nM) [%] | cell viability (U2OS [5]; 1 nM) [%] | cell viability (U2OS [5]; 10 nM) [%] | cell viability (U2OS [5]; 100 nM) [%] | cell viability (U2OS [5]; 1000 nM) [%] | cell viability (U2OS [5]; 10000 nM) [%] | relative viability EC50 (HepG2 [6]) [µM] | relative viability EC50 (Vero E6 [7]) [µM] | relative viability EC50 (Caco-2 [8]) [µM] | relative viability EC50 (Calu-3 [9]) [µM] | relative viability EC50 (U2OS [10]) [µM] | drug sensitivity score (HepG2 [11]) | drug sensitivity score (Vero E6 [12]) | drug sensitivity score (Caco-2 [13]) | drug sensitivity score (Calu-3 [14]) | drug sensitivity score (U2OS [15])
1 | CCc1cc2c(cc1CC)CC(NC[C@H](O)c1ccc(O)c3[nH]c(=O)ccc13)C2 [indacaterol] | 121 | 115 | 98.4 | 115 | 81 | 96.8 | 94.3 | 96.8 | 96.3 | 94.2 | 89.7 | 97 | 101 | 94.8 | 96.4 | 112 | 94.2 | 112 | 101 | 91.5 | 106 | 100 | 104 | 95.6 | 95.4 | > 10 | > 10 | > 10 | > 10 | > 10 | 0.2 | 0 | 0 | 0 | 0
2 | CC(C)NNC(=O)c1ccncc1 [iproniazid] | 108 | 96.4 | 108 | 104 | 105 | 100 | 95.1 | 101 | 90.8 | 108 | 93.6 | 95.9 | 98.9 | 90.8 | 103 | 93.2 | 97.9 | 94.6 | 107 | 99.6 | 96.6 | 98.9 | 97.4 | 103 | 104 | > 10 | > 10 | > 10 | > 10 | > 10 | 0 | 0 | 0 | 0 | 0
3 | CC(C)COC(=O)c1ccc(N)cc1 [isobutamben] | 98.7 | 103 | 94.9 | 88 | 90.2 | 102 | 106 | 97.9 | 98.6 | 96.2 | 100 | 95.9 | 102 | 93.1 | 98.8 | 87.8 | 100 | 103 | 111 | 102 | 104 | 96.4 | 102 | 94.1 | 99.9 | > 10 | > 10 | > 10 | > 10 | > 10 | 0.7 | 0 | 0 | 0 | 0
4 | NNC(=O)c1ccncc1 [isoniazid] | 107 | 108 | 100 | 103 | 93.7 | 97.8 | 106 | 97.9 | 97.9 | 98.4 | 97.4 | 99.4 | 103 | 91.7 | 97.6 | 110 | 98.7 | 100 | 99.2 | 99.8 | 101 | 96.6 | 101 | 96.7 | 102 | > 10 | > 10 | > 10 | > 10 | > 10 | 0 | 0 | 0 | 0 | 0
5 | COC(=O)N[C@H](C(=O)N1CC2(CC2)C[C@H]1c1nc(-c2ccc3c(c2)C(F)(F)c2cc(-c4ccc5[nH]c([C@@H]6[C@H]7CC[C@H](C7)N6C(=O)[C@@H](NC(=O)OC)C(C)C)nc5c4)ccc2-3)c[nH]1)C(C)C [ledipasvir] | 97 | 109 | 96.6 | 96.7 | 101 | 94.3 | 99.7 | 91.9 | 99.7 | 108 | 93.8 | 93.5 | 98.1 | 94.5 | 87.5 | 95.9 | 106 | 108 | 110 | 97.7 | 100 | 99 | 101 | 94.2 | 86.6 | > 10 | > 10 | > 10 | > 10 | > 10 | 0 | 0 | 0 | 0 | 0.5
6 | CC(C)[C@@H]1CC[C@@H](C)C[C@H]1O [levomenthol] | 102 | 92.8 | 101 | 104 | 103 | 95.3 | 108 | 101 | 91.2 | 94.9 | 93.3 | 84.4 | 84.7 | 94.4 | 104 | 98 | 92.9 | 88.9 | 96.8 | 90.5 | 105 | 101 | 101 | 101 | 95.5 | > 10 | > 10 | > 10 | > 10 | > 10 | 0 | 0 | 0 | 0 | 0
